We go through ten compounds from patent US6548530B1, “CBI analogs of CC-1065 and the duocarmycins” (The Scripps Research Institute, priority 1995, dated 2003).

Like-named read-outs stand apart in the source and are kept apart here.

The subject of data set [1] is L1210. Kind of data set: in vitro cytotoxic activity (L1210).
For data set [2] the following is noted: in vivo; cited from earlier work.
The next data set in a line: solubility properties. It is filed as physicochemical. As to conditions: polar protic or aprotic solvents, water, nonpolar solvents.
Data set [3] relates to double-stranded DNA (clone w794). Briefly: DNA alkylation of 5′ end-labeled duplex DNA (thermally-induced strand cleavage, PAGE, autoradiography). It is filed as biochemical. To be noted: for DNA alkylation efficiency, fold less efficient than (+)-CBI-CDPI1 (26): natural enantiomers. As for the experimental part: FIG. 21 illustrates the thermally-induced strand cleavage of double-stranded DNA (144 bp, nucleotide no. 138-5238, clone w794) after 24 h incubation of agent-DNA at 4° C. followed by removal of unbound agent and 30 inutes incubation at 100° C.; denaturing 8% polyacrylamide gel and autoradiography. Lanes 1-4, Sanger G,C,A, and T sequencing reactions; lane 5, control labeled w794 DNA; lanes 6-8, (+)-CPI-indole2 ((+)-4, 1×10^−4-1×10^−6 M); lanes 9-11, (+)-CBI-indole2 ((+)-27, 1×10^−5-1×10^−7 M).
FIG. 22 illustrates the thermally-induced strand clealvage of 5′ end-labeled duplex DNA (clone w794, 144 bp, nucleotide no 138-5238). Incubation of agent-DNA at 25° C. (24 h) followed by removal of unbound agent and 30 min thermolysis at 100° C., denaturing 8% PAGE, and autoradiography. Lanes 1-2, ent-(−)-duocarmycin SA ((−)-2, 1×10^−6 and 1×10^−7 M); lanes 3-5, (+)-duocarmycin SA, ((+)-2, 1×10^−6-1×10^−8 M); lanes 6-9, G, C, A and T sequencing reactions; lane 10, control labeled w794 DNA; lanes 11-13, (+)-CBI-TMI ((+)-29, 1×10^−6-1×10^−8 M); lanes 14-15, ent-(−)-CBI-TMI ((−)-29, 1×10^−5 and 1×10^−6 M).
FIGS. 23A-23B represent the following: Top: Plot of % integrated optical density (% IOD) versus time established through autoradiography of 5′ ^32P end-labeled DNA and used to monitor the relative rate of w794 alkylation at the 5′-AATTA high affinity site for (+)-CBI-indole2 (27) and (+)-CPI-indole2 (4); 37° C., 0-5 d, 1×10^−5 M agent. Bottom: Plot of % integrated optical density (% IOD) versus time established through autoradiography of 5′ ^32P end-labeled DNA and used to monitor the relative rate of w794 alkylation at the 5′-AATTA high affinity site for (+)-duocarmycin SA (2) and (+)-CBI-TMI (29); 4° C., 0-24 h, 1×10^−6 M agent.
DNA Alkylation Studies. General procedures, the preparation of singly ^32P 5′ end-labeled double-stranded DNA, the agent binding studies, gel electrophoresis, and autoradiography were conducted according to procedures described in full detail elsewhere. (Boger et. al Tetrahedron 1991, 47, 2661). Eppendorf tubes containing the 5′ end-labeled DNA (9 μL, w794 and w836) in TE buffer (10 mM Tris, 1 mM EDTA, pH 7.5) were treated with the agent DIMETHYLSULFOXIDE (1 μL at the specified concentration). The solution was mixed by vortexing and brief centrifugation and subsequently incubated at 25° C. for 3 days. The covalently modified DNA was separated from unbound agent by Ethanol precipitation and resuspended in TE buffer (10 μL). The solution of DNA in an Eppendorf tube sealed with parafilm was heated at 100° C. for 30 min to induce cleavage at the alkylation sites, allowed to cool to 25° C. and centrifuged. Formamide dye (0.33% xylene cyanol FF, 0.03% bromophenol blue, 8.7% Na2EDTA 250 mM) was added (5 μL) to the supernatant. Prior to electrophoresis, the sample was denatured by warming at 100° C. for 5 min, placed in an ice bath, and centrifuged, before the supernatant (3 μL) was loaded directly onto the gel. Sanger dideoxynucleotide sequencing reactions were run as standards adjacent to the reaction samples. Polyacrylamide gel electrophoresis (PAGE) was run on an 8% sequencing gel under denaturing conditions (8 M urea) in TBE buffer (100 mM Tris, 100 mM boric acid, 0.2 mM Na2EDTA) followed by autoradiography.
DNA Alkylation Studies of 2-5: Selectivity and Efficiency. Eppendorf tubes containing singly ^32P 5′-end-labeled double-stranded DNA^10 (9 μL) in TE buffer (10 mM Tris, 1 mM EDTA, pH 7.5) were treated with the agents 190-196 in DIMETHYLSULFOXIDE (1 μL, at the specified concentrations). The solutions were mixed by vortexing and brief centrifugation and subsequently incubated at 4° C. for 24 h. The covalently modified DNA was separated from unbound agent by Ethanol precipitation of the DNA. The Ethanol precipitations were carried out by adding t-RNA as a carrier (1 μL, 10 1μg/μL), a buffer solution containing salt (0.1 volume, 3 M NaOAc in TE) and −20° C. Ethanol (2.5 volumes). […]

The conditions of data set [4]: (+)-enantiomer; cited from earlier work.
Data set [5] has as its system L1210. To be noted: cited from earlier work.
[6] abbreviates: Mus musculus, L1210, read-out: cytotoxic potency.

On to `COc1c(O)c2c(c3cc(C(=O)N4CCc5c4c(O)c(OC)c4[nH]c(C(=O)N6C[C@H]7C[C@@]78C6=CC(=O)c6[nH]cc(C)c68)cc54)[nH]c13)CCN2C(N)=O` [(+)-CC-1065, CC-1065], for which the IC50 in the data set with L1210 [1] (L1210) turned out to be 0.02 nM. In data set [2], the delayed toxicity result is recorded as “exhibited the delayed toxicity”. Also, the solubility result in “solubility properties” was “essentially insoluble in all solvents except DMSO or DMF”.
Take `Cc1c[nH]c2c1[C@@]13C[C@@H]1CN(C(=O)c1cc4c5c(ccc4[nH]1)N(C(=O)c1cc4c6c(ccc4[nH]1)N(C(N)=O)CC6)CC5)C3=CC2=O` [(+)-CPI-CDPI2]: in data set [2], the delayed toxicity result is on record as “exhibited the delayed toxicity”.
For the compound `NC(=O)N1CCc2c1ccc1[nH]c(C(=O)N3C[C@H]4C[C@@]45C3=CC(=O)c3ccccc35)cc21` [Compound 26, CBI-CDPI1], the “DNA alkylation selectivity (sequence)” value is reported as 5′-A/TA/TA/TA in data set [3] ((+)-enantiomer) and 5′-A/TAA/TA/T in data set [3] (ent-(−)-enantiomer).
As for `O=C(Nc1ccc2[nH]c(C(=O)N3CC4CC45C3=CC(=O)c3ccccc35)cc2c1)c1cc2ccccc2[nH]1` (centres unmarked) [Compound 27], the “in vivo antitumor activity” value in data set [4] was “potent and efficacious”. Moreover, in the data set on L1210 [1] ((+)-enantiomer), the “cytotoxic potency compared with (+)-CC-1065” value was “comparable” and the “cytotoxic potency, fold greater than (+)-CPI-indole2 (4, U71,184)” value turned out to be 4 ×. In data set [2], the delayed toxicity result is recorded as “lacked the delayed fatal toxicity”. The “relative rate of DNA alkylation k(27)/k(4)” value in data set [3] (single high affinity site (5′-AATTA) of w794 DNA, 37° C., 0-5 d, 1×10^−5 M agent) is listed as 14. In addition, the “DNA alkylation efficiency, fold more efficient than (+)-CPI-indole2 (4)” value in data set [3] (w794, 4° C. or 37° C., (+)-enantiomers) is 10 ×.
Regarding `COc1cc2cc(C(=O)N3CC4CC45C3=CC(=O)c3ccccc35)[nH]c2c(OC)c1OC` (centres unmarked) [Compound 29, CBI-TMI], the “relative rate of DNA alkylation k(29)/k(2)” value in data set [3] (5′-AATTA high affinity site of w794 DNA, 4° C., 0-24 h, 1×10^−6 M agent) came to 0.9.
`NC(=O)N1CCc2c1ccc1oc(C(=O)N3C[C@H]4CC45C3=CC(=O)c3ccccc35)nc21` (some centres unmarked) [Compound 62, CBI-CDPBO1]: in the data set with L1210 [1] (setting [6]), the IC50 was in the range of 0.5 to 1 nM. In addition, in data set [3], the “DNA alkylation efficiency, fold less efficient than (+)-CBI-CDPI1 (26)” value is “approximately 100 ×”.
For the compound `NC(=O)N1CCc2c1ccc1[nH]c(C(=O)N3C[C@H]4CC45C3=CC(=O)c3ccccc35)nc21` (some centres unmarked) [Compound 64, N^2-[(3′-carbamoyl-1′,2′-dihydro-3′H-pyrrolo[3′,2′-e]benzimidazol-7′-yl)carbonyl]-1,2,9,9a-tetrahydro-cyclopropa-[c]-enz[e]-indol-4-one], in the data set with L1210 [1] (setting [6]), the IC50 lay within 0.5 to 1 nM. The “DNA alkylation efficiency, fold less efficient than (+)-CBI-CDPI1 (26)” value in data set [3] is recorded as “approximately 100 ×”.
For the compound `Cl.NNC(=O)N1CC(CCl)c2c1cc(O)c1ccccc21` (centres unmarked) [Compound 73, 1-(Chloromethyl)-3-(hydrazino)carbonyl-5hydroxy-1,2-dihydro-3H-benz[e]indole hydrochloride], the “in vitro cytotoxic activity compared with N-BOC-CBI (9)” value in the data set on L1210 [1] is listed as “more potent”. The “in vitro cytotoxic activity, fold more potent than tert-butylcarbazate precursor 72” value in the data set with L1210 [1] (free semicarbazide versus 72) is listed as “ca. 100 ×”. Further, in the data set on L1210 [1] (seco precursor with free amine), the “in vitro cytotoxic activity, fold less potent than (+)-CC-1065” value was determined as 100 ×.
Regarding `COc1c(O)c2c(c3cc(C(=O)N4CCc5c4c(O)c(OC)c4[nH]c(C(=O)N6CC7CC78C6=CC(=O)c6[nH]cc(C)c68)cc54)[nH]c13)CCN2C(N)=O` (stereo not drawn) [ent-(−)-CC-1065], the “cytotoxicity compared with natural (+)-CC-1065” value with L1210 [5] is “equally cytotoxic”. The delayed toxicity result in data set [2] is recorded as “has not been observed”.
As for (+)-CPI-PDE-I1 [reference compound], the IC50 in the data set on L1210 [1] (L1210) amounted to 0.02 nM.
